Assay results reported in patent publication US10208033B2, “β-carboline, dihydro-β-carboline and tetrahydro-β-carboline alkaloid derivatives and preparation methods same and use in aspects of preventing and treating plant viruses, fungicides and insecticides” (NANKAI UNIVERSITY, priority 2013, dated 2019).

Key:
[1] = system: tobacco mosaic virus (TMV); assay: Anti-TMV in vitro effect (half-leaf soaking); format: cell-based, tobacco mosaic virus (host Nicotiana tabacum L.cv.Xanthi NN); settings: Tobacco mosaic virus, read-out: Relative inhibition rate (%) In vitro activity
[2] = system: tobacco mosaic virus (TMV); assay: Anti-TMV in vivo inactivation; set-up: species or system tobacco mosaic virus (host Nicotiana tabacum L.cv.Xanthi NN); settings: Tobacco mosaic virus, read-out: Relative inhibition rate (%) In vivo inactivation
[3] = system: tobacco mosaic virus (TMV); assay: Anti-TMV in vivo therapeutic effect; set-up: species or system tobacco mosaic virus (host Nicotiana tabacum L.cv.Xanthi NN); settings: Tobacco mosaic virus, read-out: Relative inhibition rate (%) In vivo therapy
[4] = system: tobacco mosaic virus (TMV); assay: Anti-TMV in vivo protective effect; set-up: species or system tobacco mosaic virus (host Nicotiana tabacum L.cv.Xanthi NN); settings: Tobacco mosaic virus, read-out: Relative inhibition rate (%) In vivo protection
[5] = system: cucumber fusarium wilt; assay: Fungicidal (bactericidal) activity in vitro, PDA colony diameter; format: cell-based; settings: Fusarium, 96 h; 50 mg/kg
[6] = system: Cercospora arachidicola; assay: as above; format: cell-based; settings: Mycosphaerella arachidis, 96 h; 50 mg/kg
[7] = system: Macrophoma kawatsukai; assay: as above; format: cell-based; settings: 50 mg/kg
[8] = system: Alternaria solani; assay: as above; format: cell-based; settings: Alternaria solani, 96 h; 50 mg/kg
[9] = system: Fusarium graminearumt; assay: microbe, parasite or virus in culture; format: cell-based; settings: Fusarium, 96 h, read-out: Bactericidal activity (%) Fusarium graminearumt
[10] = system: potato late blight; assay: microbe, parasite or virus in culture; format: cell-based; settings: Phytophthora infestans, 96 h, read-out: Bactericidal activity (%) potato late blight
[11] = system: Sclerotinia scleotiorum; assay: Fungicidal (bactericidal) activity in vitro, PDA colony diameter; format: cell-based; settings: Sclerotinia, 96 h; 50 mg/kg
[12] = system: Botrytis cinerea; assay: as above; format: cell-based; settings: Botrytis cinerea, 96 h; 50 mg/kg
[13] = system: Rhizoctonia solani; assay: as above; format: cell-based; settings: Rhizoctonia solani, 96 h; 50 mg/kg
[14] = system: Phytophthora capsici; assay: as above; format: cell-based; settings: Phytophthora capsici, 96 h; 50 mg/kg
[15] = system: Fusarium fujikuroi; assay: as above; format: cell-based; settings: Fusarium fujikuroi, 96 h; 50 mg/kg
[16] = system: Rhizoctonia cereali; assay: as above; format: cell-based; settings: Rhizoctonia, 96 h; 50 mg/kg
[17] = system: Bipolaria maydis; assay: organism not typed; format: cell-based; settings: read-out: Bactericidal activity (%) Bipolaria maydis
[18] = system: Colletotrichum orbiculare; assay: Fungicidal (bactericidal) activity in vitro, PDA colony diameter; format: cell-based; settings: Colletotrichum orbiculare, 96 h; 50 mg/kg
[19] = system: armyworms; format: in vivo; settings: concentration 600 mg/kg
[20] = system: cotton bollworms; assay: whole plant or invertebrate; settings: Helicoverpa armigera, in Gossypium hirsutum, read-out: Cotton bollworm Mortality (%)
Experimental: Experimental method of cotton bollworms: feed and drug mixing method: measure 3 mL of prepared solution and add it to about 27 g of newly prepared feed, thereby obtaining needed concentration through dilution by 10 times.

[21] = system: mosquito larvae; assay: whole plant or invertebrate; settings: for mortality at 5 mg/kg / mortality at 10 mg/kg: Culex pipiens, 24 h, read-out: Mosquito larvae Mortality (%)
Procedure, shortened: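 Compound dissolved in acetone (or other solvent) to a 1000 ppm stock and diluted in water to 5 ppm. Ten Culex pipiens pallens larvae at the start of the fourth instar, laboratory-reared, added per beaker; solvent-only aqueous control.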

[22] = system: corn borers; assay: whole plant or invertebrate; settings: read-out: Corn borer Mortality (%)

SMILES	inhibition of growth at 50 mg/kg [5] [%]	inhibition of growth at 50 mg/kg [6] [%]	inhibition at 50 mg/kg [7] [%]	inhibition of growth at 50 mg/kg [8] [%]	inhibition of growth at 50 mg/kg [9] [%]	inhibition of growth at 50 mg/kg [10] [%]	inhibition of growth at 50 mg/kg [11] [%]	inhibition of growth at 50 mg/kg [12] [%]	inhibition of growth at 50 mg/kg [13] [%]	inhibition of growth at 50 mg/kg [14] [%]	inhibition of growth at 50 mg/kg [15] [%]	inhibition of growth at 50 mg/kg [16] [%]	inhibition at 50 mg/kg [17] [%]	inhibition of growth at 50 mg/kg [18] [%]	Armyworm Mortality (%) [19] [%]	mortality at 600 mg/kg [20] [%]	mortality at 5 mg/kg [21] [%]	mortality at 10 mg/kg [21] [%]	mortality at 600 mg/kg [22] [%]	inhibition at 100 µg/mL ([1]; treatment dose 100 μg/mL) [%]	further results
Cc1nccc2c1[nH]c1cc(O)ccc12 [Harmol]	26.9	46.2	23.8	26.3	23.8	22.7	5.9	9.1	50	25	28.6	42.1	31.8	46.4	50	20	30	100	45		inhibition at 100 µg/mL [1]: 0%; inhibition at 500 µg/mL [1]: 32.6%; inhibition at 100 µg/mL [2]: 0%; inhibition at 500 µg/mL [2]: 35.1%; inhibition at 100 µg/mL [3]: 0%; inhibition at 500 µg/mL [3]: 30%; inhibition at 100 µg/mL [4]: 9.5%; inhibition at 500 µg/mL [4]: 36.7%
Cc1nccc2c1[nH]c1ccc([N+](=O)[O-])cc12 [Ia-3]	23.8	7.1	35.3	33.3	50	25	56	54.6	10.7	36.4	42.9	59.4	31.6	23.8	50	35	60	100	50	0	inhibition at 500 µg/mL ([1]; treatment dose 500 μg/mL): 15.7%; inhibition at 100 µg/mL ([2]; treatment dose 100 μg/mL): 0%; inhibition at 500 µg/mL ([2]; treatment dose 500 μg/mL): 21.5%; inhibition at 100 µg/mL ([3]; treatment dose 100 μg/mL): 0%; inhibition at 500 µg/mL ([3]; treatment dose 500 μg/mL): 18.5%; inhibition at 100 µg/mL ([4]; treatment dose 100 μg/mL): 0%; inhibition at 500 µg/mL ([4]; treatment dose 500 μg/mL): 26.1%; activity against culex pipiens larvae (in words) ([21]; at 5 mg/kg): still show high activity
Cc1nccc2c1[nH]c1c([N+](=O)[O-])cccc12 [Ia-4]	38.5	53.9	35.7	15.8	42.9	27.3	29.4	18.2	42.1	9.4	21.4	50	36.4	42.9	10	10		30	5	0	inhibition at 500 µg/mL ([1]; treatment dose 500 μg/mL): 30%; inhibition at 100 µg/mL ([2]; treatment dose 100 μg/mL): 10.5%; inhibition at 500 µg/mL ([2]; treatment dose 500 μg/mL): 36.4%; inhibition at 100 µg/mL ([3]; treatment dose 100 μg/mL): 0%; inhibition at 500 µg/mL ([3]; treatment dose 500 μg/mL): 33.3%; inhibition at 100 µg/mL ([4]; treatment dose 100 μg/mL): 5.8%; inhibition at 500 µg/mL ([4]; treatment dose 500 μg/mL): 30.1%
